Data published in US10016383B2, “Inhibitors of metallo-β-lactamase-enzymes” (McMaster University, priority 2013, dated 2018).
“Also recorded” adds a separate entry of the source.

Assays:
Assay type in all cases: biochemical
Set-up in all cases: All β-lactamase overexpression constructs were generated without the leader peptide in a pET-28b plasmid containing a N-terminal His Tag; His tag (N, cleaved yes); SUMO (implied by the use of SUMO protease) (N, cleaved yes); made in house; host or cells: E. coli BL21(DE3)
NDM-1 [1] = molecular target: T1, NDM-1 (Klebsiella pneumoniae, UniProt C7C422); assay: Incubation of AM-A with metalloenzymes in Zn2+-depleted buffer; details: extended incubation, AM-A 0.5 mM
T1 sequence (C7C422 29-270 limits assumed): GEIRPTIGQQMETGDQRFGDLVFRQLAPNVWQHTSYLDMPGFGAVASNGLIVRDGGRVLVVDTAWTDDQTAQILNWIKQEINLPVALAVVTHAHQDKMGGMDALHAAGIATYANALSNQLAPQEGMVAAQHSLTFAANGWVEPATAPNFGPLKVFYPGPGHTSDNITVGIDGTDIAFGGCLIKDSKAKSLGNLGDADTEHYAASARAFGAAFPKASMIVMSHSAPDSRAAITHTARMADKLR
Description: Enzyme (500 nM) was incubated with AM-A (500 μM) for 10 minutes. 20 μL of the above was diluted with 180 μL nitrocefin or FAPGG substrate for the following final concentrations: Enzyme (50 nM), FAPGG (50 μM)/nitrocefin (20 μM), AM-A (50 μM). Buffer (50 mM HEPES pH 7.5, 300 mM NaCl) was stirred overnight with 2 g/100 mL Chelex-100 (Biorad; Richmond, Calif.). Assays were read in 96-well microplate format at 490 nm using a Spectramax reader (Molecular Devices) at 37° C.

NDM-1 [2] = molecular target: T1, NDM-1; assay: Zn2+ restoration assay; details: post-inactivation by AM-A
Description: NDM-1 (5 nM) supplemented with […] ZnSO4 was incubated with 20 μM AM-A for 15 minutes at 30° C. Nitrocefin (30 μM) and ZnSO4 from 500 nM-40 μM were added to a final volume of 100 μL and absorbance at 490 nm was monitored using a Spectramax reader (Molecular Devices) for 30 minutes at 30° C. Percent residual activity was calculated from no AM-A control. Slightly negative percent residual activity was reported as 0.

NDM-1 [3] = molecular target: T1, NDM-1; assay: Inactivation kinetics
Description: NDM-1 (50 nM) was added to 20 μM nitrocefin containing AM-A in serial ½ dilutions from 8 μM. The assay was performed in 50 mM HEPES pH 7.5, 200 μL final volume. The assay was read in 96-well microplate format at 490 nm using a Spectramax reader (Molecular Devices) for 10 minutes at 37° C. VIM-2 (10 nM) was added to 20 μM nitrocefin containing AM-A in serial ½ dilutions from 16 μM. The assay was performed in 50 mM HEPES pH 7.5, 200 μL final volume. The assay was read in 96-well microplate format at 490 nm using a Spectramax reader (Molecular Devices) for 10 minutes at 37° C. as reported previously. For all assays experiments the offset between reaction initiation and the first read was ˜6s.
Rate constants characterizing the inactivation of enzyme were calculated based on the dependence of the pseudo-first order rate constant, ki, upon AM-A concentration according to the following model:
[formula] where E•Zn, A, E•Zn•A, and Zn•A are the active metalloenzyme, AM-A, the ternary metalloenzyme-AM-A complex, and AM-A-metal complex, respectively. Ki represents the dissociation constant of the ternary complex and k+2 is the rate constant for dissociation of ternary complex into inactivated enzyme (Einact) and AM-A-Zn complex. […]
[formula] […] The individual values of Ki and k+2 were determined by fitting the value of ki to equation 2 as described previously^25: […]

NDM-1 [4] = molecular target: T1, NDM-1; assay: Reversibility assay (PD-10 column removal of AM-A); details: after removal of AM-A by gel filtration (PD10 column)
Description: 5 mL NDM-1 (500 nM) was incubated either with AM-A (100 μM), or without, on ice for 1 hour. The no enzyme control was buffer alone (Chelex-treated 50 mM HEPES pH 7.5). 2.5 mL was passed through a PD-10 spin column (GE healthcare) following column equilibration with buffer and centrifuged at 2,000×g for 2 minutes. Pre-PD-10 (+AM-A, −AM-A, −NDM-1), Post-PD-10 ((+AM-A, −AM-A, −NDM-1), and nitrocefin were equilibrated to 30° C. 20 μL of the enzyme solution was added to 180 μL nitrocefin for final enzyme concentration of 50 nM, and nitrocefin of 100 μM and AM-A of 10 μM. Assays were read in 96-well microplate format at 490 nm using a Spectramax reader (Molecular Devices) for 1 hr at 30° C.

N[C@H](CN[C@H](CN[C@@H](CC(=O)O)C(=O)O)C(=O)O)C(=O)O [AM-A, aspergillomarasmine A]
inactivation of NDM-1 (NDM-1 [1]): complete inactivation
NDM-1 activity after addition of excess ZnSO4 (NDM-1 [2]): enzymatic activity could be restored; also recorded: restores activity
Ki (NDM-1 [3]): 11 nM
k+2 (inactivation rate constant) (NDM-1 [3]; time-dependent inactivation): 0.0062 s⁻¹
reversibility of NDM-1 inhibition (NDM-1 [4]): irreversible inactivation
